Experimental data as given in patent US11512053B2, “Arginine methyltransferase inhibitors and uses thereof” (priority 2013, dated 2022).

Target: full-length human PRMT8 isoform 1 (Homo sapiens, UniProt Q9NR22)
Assay: PRMT8 Biochemical Assay (3H-SAM Flashplate, peptide substrate)
Details: single experiment or average of multiple experiments; read-out: Biochemical IC50 PRMT8
Summary of the method: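 Scintillation Flashplate capture of biotinylated histone H4 (31-45) peptide (150 nM) methylated by 1.5 nM PRMT8 using 3H-SAM (50 nM) with unlabelled SAM (550 nM); enzyme and compound preincubated 30 min, room temperature, in Bicine pH 7.6 buffer with TCEP, BSG, Tween 20 and 2% DMSO. Stopped with excess cold SAM (400 uM); IC50 from % inhibition, min control 1 mM SAH.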

Chain of full-length human PRMT8 isoform 1 (Q9NR22 whole entry, canonical isoform): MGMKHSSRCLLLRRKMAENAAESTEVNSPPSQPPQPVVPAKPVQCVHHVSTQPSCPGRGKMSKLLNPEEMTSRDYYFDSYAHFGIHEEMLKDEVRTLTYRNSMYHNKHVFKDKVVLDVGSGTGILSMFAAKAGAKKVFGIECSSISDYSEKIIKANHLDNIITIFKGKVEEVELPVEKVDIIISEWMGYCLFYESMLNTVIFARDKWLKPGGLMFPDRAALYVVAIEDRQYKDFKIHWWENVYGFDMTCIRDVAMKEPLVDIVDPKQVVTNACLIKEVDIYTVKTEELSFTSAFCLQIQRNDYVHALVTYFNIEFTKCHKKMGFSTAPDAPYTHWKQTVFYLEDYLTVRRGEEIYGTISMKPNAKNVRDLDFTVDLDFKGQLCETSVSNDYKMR

IC50: 950 nM
SMILES: CNCCN(C)Cc1c[nH]nc1C#Cc1ccccc1 [Compound 3]
